Assay results published in patent US20240000872A1, “NOVEL BACTERIOPHAGE THAT LYSES ACINETOBACTER GENUS BACTERIA HAVING RESISTANCE TO ANTIBIOTICS” (priority 2020, published 2024).

Tested on: Acinetobacter baumannii strains
Experiment: Antibiotic susceptibility test (CLSI disk diffusion test method, read per CLSI 2016); on antibiotic susceptibility S/I/R: key: ‘S’ means susceptible; ‘I’ means intermediate; ‘R’ means resistant; on antibiotic susceptibility class: key: ‘S’ means susceptible; ‘I’ means intermediate; ‘R’ means resistant; on susceptibility category (S/I/R): key: ‘S’ means susceptible; ‘I’ means intermediate; ‘R’ means resistant
Type: cell-based
Set-up: antibiotic susceptibility test value / susceptibility test value (number given before S/I/R) / antibiotic susceptibility value: unit not given here

Substance: ampicillin-sulbactam
- antibiotic susceptibility class (host strain YMC14/01/C29): R
- antibiotic susceptibility test value (host strain YMC14/01/C29): 32
- antibiotic susceptibility class (host strain YMC14/01/IP122): R
- antibiotic susceptibility test value (host strain YMC14/01/IP122): 32
- antibiotic susceptibility class (host strain YMC14/01/L8): R
- antibiotic susceptibility test value (host strain YMC14/01/L8): 32
- antibiotic susceptibility class (host strain YMC14/01/P31): R
- antibiotic susceptibility test value (host strain YMC14/01/P31): 32
- antibiotic susceptibility class (host strain YMC14/01/P117): R
- antibiotic susceptibility test value (host strain YMC14/01/P117): 32
- antibiotic susceptibility class (host strain YMC14/01/P224): I
- antibiotic susceptibility test value (host strain YMC14/01/P224): 16
- antibiotic susceptibility class (host strain YMC14/01/P727): R
- antibiotic susceptibility test value (host strain YMC14/01/P727): 32
- antibiotic susceptibility class (host strain YMC14/01/P728): I
- antibiotic susceptibility test value (host strain YMC14/01/P728): 16
- antibiotic susceptibility class (host strain YMC14/01/R130): I
- antibiotic susceptibility test value (host strain YMC14/01/R130): 16
- antibiotic susceptibility class (host strain YMC14/01/R160): R
- antibiotic susceptibility test value (host strain YMC14/01/R160): 32
- antibiotic susceptibility class (host strain YMC14/01/R198): R
- antibiotic susceptibility test value (host strain YMC14/01/R198): 32
- antibiotic susceptibility class (host strain YMC14/01/R257): R
- antibiotic susceptibility test value (host strain YMC14/01/R257): 32
- antibiotic susceptibility class (host strain YMC14/01/R270): R
- antibiotic susceptibility test value (host strain YMC14/01/R270): 32
- antibiotic susceptibility class (host strain YMC14/01/R324): S
- antibiotic susceptibility test value (host strain YMC14/01/R324): 8
- antibiotic susceptibility class (host strain YMC14/01/R443): R
- antibiotic susceptibility test value (host strain YMC14/01/R443): 32
- antibiotic susceptibility class (host strain YMC14/01/R451): R
- antibiotic susceptibility test value (host strain YMC14/01/R451): 32
- antibiotic susceptibility class (host strain YMC14/01/R560): R
- antibiotic susceptibility test value (host strain YMC14/01/R560): 32
- antibiotic susceptibility class (host strain YMC14/01/R617): R
- antibiotic susceptibility test value (host strain YMC14/01/R617): 32
- antibiotic susceptibility class (host strain YMC14/01/R671): R
- antibiotic susceptibility test value (host strain YMC14/01/R671): 32
- antibiotic susceptibility class (host strain YMC14/01/R732): R
- antibiotic susceptibility test value (host strain YMC14/01/R732): 32
- antibiotic susceptibility class (host strain YMC14/01/R767): I
- antibiotic susceptibility test value (host strain YMC14/01/R767): 16
- antibiotic susceptibility class (host strain YMC14/01/R904): R
- antibiotic susceptibility test value (host strain YMC14/01/R904): 32
- antibiotic susceptibility class (host strain YMC14/01/R905): R
- antibiotic susceptibility test value (host strain YMC14/01/R905): 32
- antibiotic susceptibility class (host strain YMC14/01/R921): I
- antibiotic susceptibility test value (host strain YMC14/01/R921): 16
- antibiotic susceptibility class (host strain YMC14/01/R941): R
- antibiotic susceptibility test value (host strain YMC14/01/R941): 32
- antibiotic susceptibility class (host strain YMC14/01/R958): I
- antibiotic susceptibility test value (host strain YMC14/01/R958): 16
- antibiotic susceptibility class (host strain YMC14/01/R1006): I
- antibiotic susceptibility test value (host strain YMC14/01/R1006): 16
- antibiotic susceptibility class (host strain YMC14/01/R1199): I
- antibiotic susceptibility test value (host strain YMC14/01/R1199): 16
- antibiotic susceptibility class (host strain YMC14/01/R1659): I
- antibiotic susceptibility test value (host strain YMC14/01/R1659): 16
- antibiotic susceptibility class (host strain YMC14/01/R1722): I
- antibiotic susceptibility test value (host strain YMC14/01/R1722): 16
- antibiotic susceptibility class (host strain YMC14/01/R1752): I
- antibiotic susceptibility test value (host strain YMC14/01/R1752): 16
- antibiotic susceptibility class (host strain YMC14/01/R2429): I
- antibiotic susceptibility test value (host strain YMC14/01/R2429): 16
- antibiotic susceptibility class (host strain YMC14/01/R2572): I
- antibiotic susceptibility test value (host strain YMC14/01/R2572): 16
- antibiotic susceptibility class (host strain YMC14/01/R2855): I
- antibiotic susceptibility test value (host strain YMC14/01/R2855): 16
- antibiotic susceptibility class (host strain YMC14/01/R2945): S
- antibiotic susceptibility test value (host strain YMC14/01/R2945): 4
- antibiotic susceptibility class (host strain YMC14/01/R3007): I
- antibiotic susceptibility test value (host strain YMC14/01/R3007): 16
- antibiotic susceptibility class (host strain YMC14/01/R3129): R
- antibiotic susceptibility test value (host strain YMC14/01/R3129): 32
- antibiotic susceptibility class (host strain YMC14/01/R3317): I
- antibiotic susceptibility test value (host strain YMC14/01/R3317): 16
- antibiotic susceptibility class (host strain YMC14/01/R3474): R
- antibiotic susceptibility test value (host strain YMC14/01/R3474): 32
- antibiotic susceptibility class (host strain YMC14/01/R3574): I
- antibiotic susceptibility test value (host strain YMC14/01/R3574): 16
- antibiotic susceptibility class (host strain YMC14/01/U313): S
- antibiotic susceptibility test value (host strain YMC14/01/U313): 2
- antibiotic susceptibility class (host strain YMC14/01/U318): R
- antibiotic susceptibility test value (host strain YMC14/01/U318): 32
- antibiotic susceptibility class (host strain YMC14/02/L18): I
- antibiotic susceptibility test value (host strain YMC14/02/L18): 16
- antibiotic susceptibility class (host strain YMC14/02/P47): R
- antibiotic susceptibility test value (host strain YMC14/02/P47): 32
- antibiotic susceptibility class (host strain YMC14/02/R1860): I
- antibiotic susceptibility test value (host strain YMC14/02/R1860): 16
- antibiotic susceptibility class (host strain YMC14/02/R2417): I
- antibiotic susceptibility test value (host strain YMC14/02/R2417): 16
- antibiotic susceptibility class (host strain YMC14/02/R2599): R
- antibiotic susceptibility test value (host strain YMC14/02/R2599): 32
- antibiotic susceptibility class (host strain YMC14/02/R2668): S
- antibiotic susceptibility test value (host strain YMC14/02/R2668): 8
- antibiotic susceptibility class (host strain YMC14/02/R2758): S
- antibiotic susceptibility test value (host strain YMC14/02/R2758): 8
- antibiotic susceptibility class (host strain YMC14/02/R2781): R
- antibiotic susceptibility test value (host strain YMC14/02/R2781): 32
- antibiotic susceptibility class (host strain YMC14/02/R3106): S
- antibiotic susceptibility test value (host strain YMC14/02/R3106): 8
- antibiotic susceptibility class (host strain YMC14/02/R3419): I
- antibiotic susceptibility test value (host strain YMC14/02/R3419): 16
- antibiotic susceptibility class (host strain YMC14/02/U1607): I
- antibiotic susceptibility test value (host strain YMC14/02/U1607): 16
- antibiotic susceptibility class (host strain YMC14/03/L9): I
- antibiotic susceptibility test value (host strain YMC14/03/L9): 16
- antibiotic susceptibility class (host strain YMC14/03/P471): S
- antibiotic susceptibility test value (host strain YMC14/03/P471): 8
- antibiotic susceptibility class (host strain YMC14/03/R122): R
- antibiotic susceptibility test value (host strain YMC14/03/R122): 32
- antibiotic susceptibility class (host strain YMC14/03/R217): I
- antibiotic susceptibility test value (host strain YMC14/03/R217): 16
- antibiotic susceptibility class (host strain YMC14/03/R380): S
- antibiotic susceptibility test value (host strain YMC14/03/R380): 8
- antibiotic susceptibility class (host strain YMC14/03/R618): S
- antibiotic susceptibility test value (host strain YMC14/03/R618): 8
- antibiotic susceptibility class (host strain YMC14/03/R2144): I
- antibiotic susceptibility test value (host strain YMC14/03/R2144): 16
- antibiotic susceptibility class (host strain YMC14/03/U4616): I
- antibiotic susceptibility test value (host strain YMC14/03/U4616): 16
- antibiotic susceptibility class (host strain YMC14/04/R1078): R
- antibiotic susceptibility test value (host strain YMC14/04/R1078): 32
- antibiotic susceptibility class (host strain YMC14/04/R1080): S
- antibiotic susceptibility test value (host strain YMC14/04/R1080): 4
- antibiotic susceptibility S/I/R (host strain YMC14/06/R2359): S
- antibiotic susceptibility value (host strain YMC14/06/R2359): 8
- susceptibility category (S/I/R) (host strain YMC14/06/R2359): S
- susceptibility test value (number given before S/I/R) (host strain YMC14/06/R2359): 8
- antibiotic susceptibility value (host strain YMC14/08/R1169): 16
- susceptibility category (S/I/R) (host strain YMC14/08/R1169): I
- susceptibility test value (number given before S/I/R) (host strain YMC14/08/R1169): 16
- antibiotic susceptibility S/I/R (host strain YMC14/08/T90): S
- antibiotic susceptibility value (host strain YMC14/08/T90): 8
- susceptibility category (S/I/R) (host strain YMC14/08/T90): S
- susceptibility test value (number given before S/I/R) (host strain YMC14/08/T90): 8
- antibiotic susceptibility S/I/R (host strain YMC15/02/R436): R
- antibiotic susceptibility value (host strain YMC15/02/R436): 32
- susceptibility category (S/I/R) (host strain YMC15/02/R436): R
- susceptibility test value (number given before S/I/R) (host strain YMC15/02/R436): 32
- antibiotic susceptibility value (host strain YMC15/02/T28): 16
- susceptibility category (S/I/R) (host strain YMC15/02/T28): I
- susceptibility test value (number given before S/I/R) (host strain YMC15/02/T28): 16
- antibiotic susceptibility value (host strain YMC15/03/R1604): 16
- susceptibility category (S/I/R) (host strain YMC15/03/R1604): I
- susceptibility test value (number given before S/I/R) (host strain YMC15/03/R1604): 16
- antibiotic susceptibility value (host strain YMC15/09/R1869): 16
- susceptibility category (S/I/R) (host strain YMC15/09/R1869): I
- susceptibility test value (number given before S/I/R) (host strain YMC15/09/R1869): 16
- antibiotic susceptibility S/I/R (host strain YMC16/01/P11): R
- antibiotic susceptibility value (host strain YMC16/01/P11): 32
- susceptibility category (S/I/R) (host strain YMC16/01/P11): R
- susceptibility test value (number given before S/I/R) (host strain YMC16/01/P11): 32
- antibiotic susceptibility S/I/R (host strain YMC16/01/R123): R
